In patent publication US20100075856A1, “METHOD FOR INCREASING THE DRY BIOMASS OF PLANTS” (BASF SE, priority 2006, published 2010) one finds Yield data, which are given here for one substance.

Common to all, as to format: in vivo
Test [1] concerns Soybean of the variety Conquista. In words: Biomass of soybean grains, field trial, free disease conditions (example 2.1). Particulars: spray, epoxiconazole pre-treatment, grains 13 to 18% residual moisture. As to the method:
(§1) Soybean of the variety Conquista was cultivated under customary conditions at Campinas (Brazil) in 2005/2006. One part of the trial was treated with pyraclostrobin (in the form of the commercially available product F500 from BASF; diluted with water to a concentration of 0.42 g/l) at the growing stage 61/62 and the other part at GS 65/67 by spraying about 350 l/ha (150 g of active compound per ha). Control plants were treated at GS 61/62 and 65/67, respectively, with a formulation according to that of F500 but without the active compound pyraclostrobin (“blank formulation”). One week prior to the treatment either with the active formulation or with the blank formulation, the plants were treated with epoxiconazole in order to ensure absence of fungal stress. 56 days after the application at GS 65/67, the plants were harvested and the soybean grains having a residual moisture content of 13 to 18% by weight, based on the total weight of the grains, were weighed.

For test [2] the test system is unchanged. In words: Biomass of soybean grains, field trial, disease conditions (example 2.2). Particulars: without epoxiconazole pre-treatment, grains 13 to 22% residual moisture. As to the method: as §1
The experiments were carried out according to example 2.1, however without the epoxiconazole pre-treatment. The residual moisture content was 13 to 22% by weight, based on the total weight of the grains.

The test system of test [3] is Corn of the cultivar DKB 390. The experiment in a line: Biomass of corn grains, field trial, free disease conditions, another field (example 1.3). Particulars: corn DKB 390, another field. How it is done: (§2) Corn of the cultivar DKB 390 was cultivated under customary conditions (150 kg/ha nitrogen) at Campinas (Brazil) in 2005/2006. One part of the trial was treated with pyraclostrobin (in the form of the commercially available product F500 from BASF; diluted with water to a concentration 0.5 g/l) at the growing stage 34/35 and the other part at GS 55/57 by spraying about 300 l/ha (150 g of active compound per ha). Control plants were treated at GS 35/35 and 55/57, respectively, with a formulation according to that of F500 but without the active compound pyraclostrobin (“blank formulation”). One week prior to the treatment either with the active formulation or with the blank formulation, the plants were treated with epoxiconazole in order to ensure absence of fungal stress. 55 days after the application at GS 55/57, the plants were harvested and the corn grains having a residual moisture content of 14 to 20% by weight, based on the total weight of the grains, were weighed.
The experiments were carried out according to example 1.1, however using another field.

Test [4] has as its system corn of the cultivar DKB 455. The experiment in a line: Biomass of corn grains, field trial, free disease conditions (example 1.4). How it is done:
as §2
The experiments were carried out according to example 1.1, however using corn of the cultivar DKB 455.

The subject of test [5] is Corn of the cultivar DKB 390. In words: Biomass of corn grains, field trial, free disease conditions (example 1.1). Particulars: corn DKB 390, 150 g of active compound per ha, spray, epoxiconazole pre-treatment, grains 14 to 20% residual moisture. As to the method:
as §2

The test system of test [6] is Corn of the cultivar DKB 390. The experiment in a line: Biomass of corn grains, field trial, disease conditions (example 1.2). Particulars: corn DKB 390, 150 g of active compound per ha, without epoxiconazole pre-treatment, grains 14 to 22% residual moisture. How it is done: as §2
The experiments were carried out according to example 1.1, however without the epoxiconazole pre-treatment. Moreover, the concentration of pyraclostrobin in the spray liquor was 1 g/l and 150 l/ha were sprayed (150 g of active compound per ha). The residual moisture content of the grains was 14 to 22% by weight, based on the total weight of the grains.

The mark [7] stands for this setting: treated at GS 61/62, 150 g of active compound per ha.
Setting [8] is: treated at GS 65/67, 150 g of active compound per ha.

Take pyraclostrobin: the Yield in test [1] (setting [7]) is on record as 2254 kg/ha; in test [1] (setting [8]) it was 2209 kg/ha; in test [2] (setting [7]), 2163 kg/ha; in test [2] (setting [8]) it was 2120 kg/ha; in test [3] (treated at GS 34/35, 150 g of active compound per ha), 8.0 ton/ha; in test [3] (treated at GS 55/57, 150 g of active compound per ha) it was 8.3 ton/ha. For the same substance, the Yield in test [4] (corn DKB 455, treated at GS 34/35, 150 g of active compound per ha) came to 8.6 ton/ha; in test [4] (corn DKB 455, treated at GS 55/57, 150 g of active compound per ha), 9.2 ton/ha; in test [5] (treated at GS 34/35), 10.4 ton/ha; in test [5] (treated at GS 55/57), 10.6 ton/ha; in test [6] (treated at GS 34/35) it was 8.7 ton/ha; in test [6] (treated at GS 55/57), 8.8 ton/ha.
